Measured values: ChEMBL document CHEMBL1126998, “-lactam derivatives from 1-H-1,2-diazepines” (Bioorg Med Chem Lett, 1993)
Several values for one entry are separate records, joined by “and”; a condition that tells them apart may be missing. Equal entries are not always repeated.

Assays:
JM1 [1] = assay: Tested for antiviral uM; Activity expressed as % inhibition of syncytium; type: functional, Homo sapiens
JM1 [2] = assay: Tested for the cytotoxicity against JM cells at 100 uM in an MTT assay; type: functional, Homo sapiens
JM1 [3] = assay: (§1) Tested for antiviral activity of compound against HIV (Strain GB 8) in JM cells; type: functional, cell-based; conditions: Homo sapiens
JM1 [4] = assay: as §1; type: functional, Homo sapiens
JM1 [5] = assay: as §1; type: functional, cell-based; conditions: Homo sapiens; remark: listed apart in the source

Structure (SMILES) | Inhibition (JM1 [1]) | Cytotoxicity (JM1 [2]) | IC50 (JM1 [3]) | IC90 (JM1 [4]) | IC90 (JM1 [4]; Homo sapiens, JM1) | IC50 (JM1 [5])
COC(=O)NN1C(=O)[C@H](C)[C@H]1[C@@H]1NC[C@@H](O)[C@H]1O.Cl | 20% and 27% |  |  |  |  | 
O[C@H]1[C@H](O)[C@@H](O)CN2CC[C@H](O)[C@H]12 [CASTANOSPERMINE] |  | 0% and 4% | 8.8 µM | 24.5 µM | 28.2 µM | 7.3 µM
